Experimental data from patent US11384060B2, “Amide compounds and use thereof” (ALPHALA CO., LTD., priority 2017, dated 2022).
Read-outs that look alike come from different tables or passages of the source. One block for each compound: values may come before it.

Tests used:
glucagon receptor (GCGR) = target: T1, glucagon receptor (GCGR) (Homo sapiens, UniProt P47871); assay: I125-glucagon binding assay (competition, GCGR membrane fractions)
T1 construct: expressed in transfected cells; host or cells: CHO-K1 cells overexpressing GCGR (membrane fractions)
T1 sequence (P47871 26-477): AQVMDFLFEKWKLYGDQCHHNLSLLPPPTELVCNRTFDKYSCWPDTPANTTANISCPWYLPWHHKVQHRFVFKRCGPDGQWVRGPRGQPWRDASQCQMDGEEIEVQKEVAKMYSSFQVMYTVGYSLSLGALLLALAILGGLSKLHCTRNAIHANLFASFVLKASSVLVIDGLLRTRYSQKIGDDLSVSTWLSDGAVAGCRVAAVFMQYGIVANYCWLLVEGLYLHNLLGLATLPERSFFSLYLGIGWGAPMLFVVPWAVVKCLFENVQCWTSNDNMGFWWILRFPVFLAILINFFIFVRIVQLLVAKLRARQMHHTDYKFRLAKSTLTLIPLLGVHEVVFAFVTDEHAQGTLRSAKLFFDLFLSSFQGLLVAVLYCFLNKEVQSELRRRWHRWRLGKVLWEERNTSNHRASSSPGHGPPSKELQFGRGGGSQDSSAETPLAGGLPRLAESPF
Experimental: I^125-Glucagon Binding Assay
The binding affinity of each compound was evaluated by a competition assay with I^125-glucagon. GCGR membrane fractions were obtained from GCGR overexpressed CHO-K1 cells as a stock of 1 mg/ml concentration. To evaluate the IC50 of compounds binding to GCGR, GCGR membrane fractions were treated with compounds with a serial dilution. The membrane fractions were diluted to 7.5 microgram per well in 70 microliter assay buffer contained 50 mM Tris pH 7.4 and 0.5% (w/v) bovine serum albumin and added into 96 wells plate. The membrane fractions were then mixed with 10 microliter diluted compounds. After 5 minutes pre-incubation, 20 microliter I^125 labeled glucagon (Perkin Elmer) was added into each well at the final concentration of 0.0625 nM. The assay mixtures were incubated at 25° C. for 30 minutes and then transferred onto the Millipore MultiScreen GF/B Plate coated with 0.5% (w/v) Polyethyleneimine. The filter plate was washed with wash buffer contained 50 mM Tris pH 7.4 for 2 times, 300 microliter each time. The residual isotope was detected by Hidex CHAMELEON V micro-beta counter and the IC50 value of each compound binding to GCGR was calculated with non-linear regression.

[1] = target: T2, glucagon receptor (GCGR) overexpressed CHO-K1 cells or human primary hepatocytes (Homo sapiens, UniProt P47871); assay: Glucagon cAMP inhibition assay (Cisbio cAMP Dynamic 2 HTRF); assay type: cell-based
T2 construct: expressed in transfected cells; host or cells: GCGR overexpressed CHO-K1 cells or human primary hepatocytes (endogenous receptor)
T2 sequence (P47871 26-477): as above
Experimental: Glucagon cAMP Inhibition Assay
Downstream secondary messenger cAMP induced by glucagon was detected by Cisbio cAMP Dynamic 2 kit. Testing compounds were each prepared as a dimethyl sulfoxide (DMSO) solution at the concentration of 10 mM. To evaluate the potency of compounds in inhibiting the cAMP production, glucagon receptor (GCGR) overexpressed CHO-K1 cells or human primary hepatocytes were treated with compounds with a serial dilution. The cells were re-suspended in Hank's Balanced Salt solution (HBSS) contained 0.1% (w/v) bovine serum albumin and 800 nM 3-isobutyl-1-methylxanthine (IBMX) and seeded into low volume, 384 wells white plate. The diluted compounds were then added into the plate for 30 minutes pre-incubation where the final DMSO concentration was 1%. The cells were stimulated with glucagon at the concentration equaled to EC50 (an indicium of the concentration of a drug that gives half-maximal response) for 30 minutes at room temperature. After incubation, lysis buffer contain cAMP antibody and fluorescence acceptor were added into each well for additional 60 minutes incubation. Results were recorded by Molecular Devices SpectraMax Paradigm with the HTRF Detection Cartridges and the IC50 value of each compound in inhibiting the cAMP production was calculated with non-linear regression based on the amount of cAMP production.

[2] = competition with I125-glucagon 0.0625 nM, membrane fractions of GCGR overexpressed CHO-K1 cells
[3] = inhibition of glucagon (EC50 concentration) induced cAMP production

Structure (SMILES): CCOC(=O)CCNC(=O)c1ccc(N[C@H](COc2ccc(-c3cc4ccccc4o3)cc2)C(C)C)cc1 [Compound 1-1, Ethyl(S)-3-(4-((1-(4-(benzofuran-2-yl)phenoxy)-3-methylbutan-2-yl)amino)benzamido) propanoate]
IC50 (glucagon receptor (GCGR); [2]): 0.803 µM
IC50 cAMP [1, 3]: 1.177 µM

Structure (SMILES): CC[C@H](C)[C@@H](COc1ccc(-c2ccc(F)cc2F)cc1)Nc1ccc(C(=O)NCCC(=O)O)cc1 [Compound 1-26]
IC50 cAMP [1, 3]: 0.213 µM

Structure (SMILES): CC[C@H](C)[C@@H](COc1ccc(-c2nnc(C(C)(C)C)o2)c(OC)c1)Nc1ccc(C(=O)NCCC(=O)O)cc1 [Compound 13-13, 3-(4-(((2S,3S)-1-(4-(5-(tert-butyl)-1,3,4-oxadiazol-2-yl)-3-methoxyphenoxy)-3-methylpentan-2-yl)amino)benzamido)propanoic Acid]
IC50 (glucagon receptor (GCGR); [2]): 0.883 µM

Structure (SMILES): CCC(C)[C@@H](COc1nnc(-c2ccc(OC(F)(F)F)cc2)o1)Nc1ccc(C(=O)NCCC(=O)O)cc1 (stereo partly drawn) [Compound 22-8, 3-(4-(((2S)-3-methyl-1-((5-(4-(trifluoromethoxy)phenyl)-1,3,4-oxadiazol-2-yl)oxy)pentan-2-yl)amino)benzamido)propanoic Acid]
IC50 (glucagon receptor (GCGR)): > 30 µM

Structure (SMILES): CCC(C)[C@@H](COc1nnc(-c2ccc(C(C)(C)C)cc2)o1)Nc1ccc(C(=O)NCCC(=O)O)cc1 (stereo partly drawn) [Compound 22-9, 3-(4-(((2S)-1-((5-(4-(tert-butyl)phenyl)-1,3,4-oxadiazol-2-yl)oxy)-3-methylpentan-2-yl)amino)benzamido)propanoic Acid]
IC50 (glucagon receptor (GCGR)): > 30 µM

Structure (SMILES): Cc1cc(C)c(-c2ccc(C[C@H](Nc3ccc(C(=O)NCCS(=O)(=O)O)cc3)C(=O)Nc3ccc(C(C)(C)C)cc3)cc2)c(C)c1 [Compound 23-26, (S)-2-(4-((1-((4-(tert-butyl)phenyl)amino)-1-oxo-3-(2′,4′,6′-trimethyl-[1,1′-biphenyl]-4-yl)propan-2-yl)amino)benzamido)ethane-1-sulfonic Acid]
IC50 cAMP [1]: 39.3 µM

Structure (SMILES): CCOC(=O)CCNC(=O)c1ccc(N[C@@H](Cc2c[nH]c3ccccc23)C(=O)Nc2ccc(-c3cc4ccccc4o3)cc2)cc1 [Compound 23-27, Ethyl (S)-3-(4-((1-((4-(benzofuran-2-yl)phenyl)amino)-3-(1H-indol-3-yl)-1-oxopropan-2-yl)amino)benzamido)propanoate]
IC50 cAMP [1]: 34.6 µM

Results, then the compound that gave them:

IC50 (glucagon receptor (GCGR)): 6.02 µM
IC50 cAMP ([1]; uM): >10 µM
Structure (SMILES): O=C(O)CCNC(=O)c1ccc(NC(Cc2ccccc2)C(=O)Nc2ccc(C(F)(F)F)cc2)cc1 (stereo in doubt) [Compound 24-4, (S)-3-(4-((1-oxo-3-phenyl-1-((4-(trifluoromethyl)phenyl)amino)propan-2-yl)amino)benzamido)propanoic Acid]

IC50 cAMP ([1]; uM): >10 µM
Structure (SMILES): CCOC(=O)CCNC(=O)c1ccc(N[C@@H](Cc2cccc3ccccc23)C(=O)NC(C)C)cc1 [Compound 24-11, Ethyl (S)-3-(4-((1-(isopropylamino)-3-(naphthalen-1-yl)-1-oxopropan-2-yl)amino)benzamido)propanoate]

IC50 cAMP ([1]; uM): >10 µM
Structure (SMILES): CC(C)NC(=O)[C@H](Cc1cccc2ccccc12)Nc1ccc(C(=O)NCCC(=O)O)cc1 [Compound 24-12, (S)-3-(4-((1-(isopropylamino)-3-(naphthalen-1-yl)-1-oxopropan-2-yl)amino)benzamido)propanoic Acid]

IC50 cAMP ([1]; uM): >10 µM
Structure (SMILES): CCOC(=O)CCNC(=O)c1ccc(N[C@@H](Cc2ccc3ccccc3c2)C(=O)NC(C)C)cc1 [Compound 24-13, Ethyl (S)-3-(4-((1-(isopropylamino)-3-(naphthalen-2-yl)-1-oxopropan-2-yl)amino)benzamido)propanoate]

IC50 cAMP ([1]; uM): >10 µM
Structure (SMILES): CC(C)NC(=O)[C@H](Cc1ccc2ccccc2c1)Nc1ccc(C(=O)NCCC(=O)O)cc1 [Compound 24-14, (S)-3-(4-((1-(isopropylamino)-3-(naphthalen-2-yl)-1-oxopropan-2-yl)amino)benzamido)propanoic Acid]
